Experimental data reported in US12378519B2, “Microfluidic model of the blood brain barrier” (EMULATE, Inc., priority 2015, dated 2025).

Assays:
Type in all cases: cell-based, human
neurons seeded in chip = test system: neurons seeded in chip
iBMEC barrier function = assay: TEER measurement on prototype TEER chips under flow; settings: exposure of the chips to TNFa after flow, FIG. 14A
Experimental: Cells were plated on tall channel PDMS chips equipped with incorporated gold electrodes on each channel (see FIG. 13A). Post seeding of BMECs, transendothelial electrical resistance was measured by connecting the electrodes to an EVOM2 voltohmmeter (see FIG. 13B). […] The “damaged” chip was a failure due to the TEER-Chips being a prototype.
Higher TEER values generally indicate a tighter barrier, which is typically desirable for a blood-brain barrier.

[1] = test system: BMECs seeded on a microfluidic device; assay: Paracellular permeability assay with Dextran-FITC on chip; settings: TNF-alpha exposure, FIG. 14B
Experimental: Albumin or Dextran conjugated to a fluorescent probe (e.g., FITC or TRITC) are frequently used to monitor changes in leakage, and thus barrier function. In this case, Dextran-FITC, a green fluorescent molecule of 4 KDa, or sodium fluorescein (a 0.3 KDa molecule), was added to the bottom (“blood side”) channel. Paracellular permeability was calculated by measuring the permeability of the fluorescent molecule on the Top (“brain side”) channel. […] FIG. 14B involves TNF-alpha exposure, but the readout is membrane permeability as measured by Dextran-FITC.

Compound | neuronal activity (Ca2+ fluxes, dF/F) (neurons seeded in chip) | iBMEC barrier function (TEER) (iBMEC barrier function) | membrane permeability as measured by Dextran-FITC [1]
NC1=N[C@H](O)[C@H]2[C@H]3O[C@]4(O)O[C@@H]([C@@H](O)[C@@]2(N1)[C@@H]4O)[C@]3(O)CO [TTX, tetrodotoxin] | ablates this activity |  | 
TNFa |  | weakening of barrier function | increase in permeability
